Laboratory results: the supplement of paper PMC10307832

Experiments:
Experiment in all cases: relative viability (nuclei count vs DMSO), 5 days (fraction); higher = more cells survive
Alisertib + Crizotinib = compound: COc1cc(Nc2ncc3c(n2)-c2ccc(Cl)cc2C(c2c(F)cccc2OC)=NC3)ccc1C(=O)O [Alisertib] + C[C@@H](Oc1cc(-c2cnn(C3CCNCC3)c2)cnc1N)c1c(Cl)ccc(F)c1Cl [Crizotinib] (partner 1 µM)
Method in brief: (§1)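 Relative viability was taken as the ratio of nuclei in treated wells to nuclei in vehicle wells. Lung cancer cell lines in 1536-well plates received compounds by pin tool one day after seeding, either one drug alone or a fixed anchor-drug dose plus five library-drug doses (not always all listed) in √10 steps. Nuclei were counted on 4× images after 5 days of treatment, and values are medians of duplicate plates.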

Alisertib + Phenformin = compound: COc1cc(Nc2ncc3c(n2)-c2ccc(Cl)cc2C(c2c(F)cccc2OC)=NC3)ccc1C(=O)O [Alisertib] + N=C(N)NC(=N)NCCc1ccccc1 [Phenformin] (partner 250 µM)
Method in brief: as §1

Alisertib + Navitoclax = compound: COc1cc(Nc2ncc3c(n2)-c2ccc(Cl)cc2C(c2c(F)cccc2OC)=NC3)ccc1C(=O)O [Alisertib] + CC1(C)CCC(c2ccc(Cl)cc2)=C(CN2CCN(c3ccc(C(=O)NS(=O)(=O)c4ccc(N[C@H](CCN5CCOCC5)CSc5ccccc5)c(S(=O)(=O)C(F)(F)F)c4)cc3)CC2)C1 [Navitoclax] (partner 0.5 µM)
Method in brief: as §1

Alisertib + Decitabine = compound: COc1cc(Nc2ncc3c(n2)-c2ccc(Cl)cc2C(c2c(F)cccc2OC)=NC3)ccc1C(=O)O [Alisertib] + Nc1ncn([C@H]2C[C@H](O)[C@@H](CO)O2)c(=O)n1 [Decitabine] (partner 2 µM)
Method in brief: as §1

Cell Line	relative viability (Alisertib + Crizotinib; first compound 0.005 µM)	relative viability (Alisertib + Crizotinib; first compound 0.01581 µM)	relative viability (Alisertib + Crizotinib; first compound 0.05 µM)	relative viability (Alisertib + Crizotinib; first compound 0.1581 µM)	relative viability (Alisertib + Crizotinib; first compound 0.5 µM)	relative viability (Alisertib + Phenformin; first compound 0.005 µM)	relative viability (Alisertib + Phenformin; first compound 0.01581 µM)	relative viability (Alisertib + Phenformin; first compound 0.05 µM)	relative viability (Alisertib + Phenformin; first compound 0.1581 µM)	relative viability (Alisertib + Phenformin; first compound 0.5 µM)	relative viability (Alisertib + Navitoclax; first compound 0.005 µM)	relative viability (Alisertib + Navitoclax; first compound 0.01581 µM)	relative viability (Alisertib + Navitoclax; first compound 0.05 µM)	relative viability (Alisertib + Navitoclax; first compound 0.1581 µM)	relative viability (Alisertib + Navitoclax; first compound 0.5 µM)	relative viability (Alisertib + Decitabine; first compound 0.005 µM)	relative viability (Alisertib + Decitabine; first compound 0.01581 µM)	relative viability (Alisertib + Decitabine; first compound 0.05 µM)	relative viability (Alisertib + Decitabine; first compound 0.1581 µM)	relative viability (Alisertib + Decitabine; first compound 0.5 µM)
201T	0.982	0.992	0.938	0.809	0.418	0.38	0.435	0.441	0.238	0.256	1.25	1.19	1.21	1.07	0.425	0.837	0.847	0.72	0.582	0.802
A549	0.611	0.197	0.0682	0.0571	0.0624	0.152	0.0871	0.0611	0.0311	0.0352	1.1	0.642	0.215	0.0692	0.0461	0.247	0.207	0.125	0.0435	0.0399
A-427	0.903	0.839	0.136	0.146	0.174	0.298	0.187	0.117	0.132	0.121	0.897	0.907	0.26	0.167	0.158	0.52	0.442	0.233	0.211	0.211
ABC-1	1.1	0.551	0.363	0.318	0.23	0.269	0.225	0.185	0.218	0.195	–	–	–	–	–	1.12	0.915	0.869	0.598	0.33
BEN	0.868	0.838	0.238	0.213	0.237	0.283	0.299	0.233	0.207	0.184	0.0634	0.063	0.0731	0.0469	0.0558	0.607	0.51	0.304	0.363	0.325
CAL-12T	0.613	0.232	0.142	0.166	0.109	0.434	0.253	0.15	0.142	0.169	1.15	0.568	0.208	0.141	0.165	–	–	–	–	–
COR-L23	0.571	0.48	0.17	0.151	0.102	0.351	0.388	0.243	0.137	0.109	0.921	0.965	0.576	0.198	0.105	0.422	0.419	0.307	0.146	0.118
COR-L 105	0.857	0.587	0.621	0.523	0.251	0.454	0.493	0.335	0.234	0.246	0.909	0.686	0.532	0.273	0.287	0.633	0.698	0.481	0.349	0.324
Calu-6	0.697	0.334	0.204	0.227	0.198	–	–	–	–	–	0.713	0.377	0.13	0.0974	0.107	–	–	–	–	–
ChaGo-K-1	1.08	0.849	0.366	0.344	0.317	0.426	0.382	0.418	0.151	0.139	1.01	0.8	0.313	0.286	0.239	0.518	0.423	0.222	0.197	0.19
EBC-1	0.177	0.189	0.174	0.139	0.155	–	–	–	–	–	0.298	0.278	0.131	0.17	0.167	–	–	–	–	–
EKVX	0.796	0.807	0.313	0.182	0.219	0.209	0.209	0.135	0.129	0.131	0.924	0.837	0.589	0.162	0.15	0.303	0.302	0.206	0.174	0.158
EMC-BAC-2	0.683	0.382	0.25	0.225	0.148	0.389	0.343	0.27	0.245	0.197	1.08	0.978	0.362	0.296	0.18	0.849	0.694	0.445	0.343	0.291
EPLC-272H	0.931	0.851	0.739	0.201	0.113	0.251	0.238	0.284	0.101	0.12	1.11	0.962	0.368	0.346	0.147	0.344	0.363	0.295	0.141	0.152
H3255	0.909	0.765	0.662	0.205	0.174	0.329	0.338	0.313	0.299	0.294	0.484	0.415	0.355	0.0997	0.0929	0.602	0.467	0.396	0.241	0.143
HARA	1.05	0.796	0.277	0.169	0.135	0.398	0.469	0.358	0.187	0.133	1.15	1.14	0.544	0.281	0.0564	0.524	0.58	0.334	0.208	0.145
HCC-15	0.808	0.655	0.219	0.115	0.0945	0.401	0.313	0.178	0.108	0.1	0.657	0.517	0.27	0.12	0.103	0.541	0.316	0.19	0.13	0.139

Cell Line	relative viability (Alisertib + Crizotinib; first compound 0.005 µM)	relative viability (Alisertib + Crizotinib; first compound 0.01581 µM)	relative viability (Alisertib + Crizotinib; first compound 0.05 µM)	relative viability (Alisertib + Crizotinib; first compound 0.1581 µM)	relative viability (Alisertib + Crizotinib; first compound 0.5 µM)	relative viability (Alisertib + Phenformin; first compound 0.005 µM)	relative viability (Alisertib + Phenformin; first compound 0.01581 µM)	relative viability (Alisertib + Phenformin; first compound 0.05 µM)	relative viability (Alisertib + Phenformin; first compound 0.1581 µM)	relative viability (Alisertib + Phenformin; first compound 0.5 µM)	relative viability (Alisertib + Navitoclax; first compound 0.005 µM)	relative viability (Alisertib + Navitoclax; first compound 0.01581 µM)	relative viability (Alisertib + Navitoclax; first compound 0.05 µM)	relative viability (Alisertib + Navitoclax; first compound 0.1581 µM)	relative viability (Alisertib + Navitoclax; first compound 0.5 µM)	relative viability (Alisertib + Decitabine; first compound 0.005 µM)	relative viability (Alisertib + Decitabine; first compound 0.01581 µM)	relative viability (Alisertib + Decitabine; first compound 0.05 µM)	relative viability (Alisertib + Decitabine; first compound 0.1581 µM)	relative viability (Alisertib + Decitabine; first compound 0.5 µM)
HCC-44	0.872	0.769	0.388	0.219	0.176	0.146	0.193	0.134	0.0875	0.0665	1.04	0.949	0.509	0.412	0.14	0.895	0.937	0.849	0.419	0.364
HCC-78	0.358	0.291	0.205	0.153	0.205	0.61	0.541	0.321	0.281	0.26	0.681	0.514	0.176	0.131	0.131	0.635	0.507	0.316	0.29	0.298
IA-LM	0.831	0.608	0.485	0.256	0.104	–	–	–	–	–	0.654	0.59	0.313	0.164	0.0604	–	–	–	–	–
LCLC-103H	1.04	1.04	0.719	0.374	0.412	0.305	0.304	0.316	0.175	0.187	–	–	–	–	–	0.72	0.714	0.355	0.315	0.431
NCI-H358	0.632	0.358	0.193	0.188	0.186	0.259	0.262	0.118	0.0826	0.0797	–	–	–	–	–	0.222	0.186	0.121	0.086	0.098
NCI-H522	–	–	–	–	–	0.521	0.56	0.75	0.419	0.493	–	–	–	–	–	0.69	0.686	0.558	0.443	0.408
NCI-H650	0.773	0.55	0.28	0.239	0.23	0.404	0.377	0.258	0.202	0.168	–	–	–	–	–	0.295	0.282	0.275	0.185	0.18
NCI-H661	1.05	1.02	0.48	0.392	0.504	0.267	0.288	0.271	0.246	0.29	–	–	–	–	–	0.459	0.501	0.37	0.312	0.293
NCI-H1299	0.965	0.727	0.671	0.348	0.252	–	–	–	–	–	1.03	1.01	0.801	0.395	0.204	–	–	–	–	–
NCI-H1395	–	–	–	–	–	0.427	0.413	0.44	0.358	0.329	1.12	1.12	0.935	0.459	0.471	0.649	0.618	0.505	0.471	0.393
NCI-H1563	0.741	0.911	0.788	0.809	0.601	0.664	0.643	0.674	0.724	0.539	–	–	–	–	–	–	–	–	–	–
NCI-H1648	–	–	–	–	–	–	–	–	–	–	–	–	–	–	–	–	0.478	0.405	0.279	0.247
NCI-H1703	0.711	0.501	0.294	0.37	0.113	–	–	–	–	–	1.2	0.837	0.317	0.156	0.126	–	–	–	–	–
NCI-H1793	–	–	–	–	–	0.312	0.233	0.291	0.191	0.148	0.428	0.339	0.247	0.17	0.148	0.359	0.309	0.196	0.24	0.206
NCI-H2228	0.686	0.406	0.301	0.168	0.188	0.277	0.287	0.17	0.0908	0.0966	0.829	0.672	0.564	0.0729	0.0587	–	–	–	–	–
NCI-H2342	–	–	–	–	–	0.552	0.551	0.581	0.41	0.362	–	–	–	–	–	0.673	0.639	0.452	0.441	0.431
SW 900	–	–	–	–	–	0.434	0.589	0.442	0.18	0.141	–	–	–	–	–	0.419	0.377	0.296	0.213	0.255
